Bridge positions count the residues as written; N and C are the ends. Ends that are not written are not given here.
What was measured:
[1] = design: method as in earlier work; conditions: ref 11 (Sankari et al.); cited from earlier work
[2] = UV/vis spectroscopy heme binding to NCR247-derived peptides; conditions: 30 min incubation; Soret λ ~420 nm (oxidized isomers) or ~428 nm (reduced); n=1; peptide 20 μM, heme 0.4-40 μM, 100 mM HEPES pH 7.0
Description: (§1) Heme binding to the NCR247 parent peptide and its analogues was assessed using UV/vis spectroscopy (Table S2) following an earlier established experimental set‐up,[27, 30, 31, 32] with heme (0.4 to 40 μM) titrated to NCR247 peptide (20 μM) in 100 mM HEPES buffer (pH 7.0). […] The KD value for this peptide was first determined by adjusting the established protocol[30] to 1 min incubation time, while at an incubation time of 30 min concomitant oxidation of the cysteine residues has taken place as indicated by the fact that a stable complex was formed only in the first minutes and then a change in the spectrum occurred which is due to disulfide bond formation changing the heme‐binding behaviour of the peptide. […]
(§2) Heme binding to the NCR247-derived peptides (Fig. 1, Table S1) was investigated by UV/vis spectroscopy, as described earlier.[2,3,7– 9] […] Absorbance spectra were recorded on a Multiskan GO spectrophotometer (ThermoScientific, Dreieich, Germany) in the range of 300 - 600 nm. Difference spectra were generated by subtracting the spectra of heme and peptide alone from the absorbance spectrum of the hemin-peptide complex. Dissociation constants (KD) were determined by using GraphPad Prism 10.0.2 and the earlier established equation from Pîrnău and Bogdan, as described elsewhere.[7,10]

[3] = UV/vis titration of MBP in complex with NCR247_1–4,2–3 with heme; conditions: peptide versus MBP
Description: (§21) UV/vis titration experiments of peptides and proteins with heme.
(§22) Maltose-binding protein (Rockland Inc. Pennsylvania, USA) (10 µM) was preincubated with heme in different concentrations (4 - 40
(§23) µM) for 30 min in HEPES buffer (pH 7.0) prior to the UV/vis spectroscopic analysis. Subsequently, absorbance spectra were recorded
and analysed analogously to the heme-binding studies with the peptides described above.[2] Similar to the aforementioned approach,
NCR247 was added and measured spectroscopically. In addition to this, 10 µM NCR247_1-4,2-3 was incubated with increasing

MBP-NCR247_1-4,2-3 [4] = test: UV/vis spectroscopic titration of preformed MBP (10 uM) plus NCR247_1-4,2-3 (10 uM) with heme (4-45 uM), 30 min incubation, evaluated near 420 nm with a 1:1 model.; assay type: binding; conditions: read-out: KD value, stoichiometry 1:1 (MBP-NCR247_1-4,2-3:heme)
Description: (§3) Peroxidase-like activity of the heme-peptide complexes.
(§4) 10 μl of the heme-peptide complex (final concentration:
(§5) (100%) and evaluated as the average of triplicate measurements.
(§6) Subsequently, absorbance spectra were recorded
(§7) Similar to the aforementioned approach,
(§8) NCR247 was added and measured spectroscopically.
(§9) Resonance Raman spectroscopy of the heme-peptide complexes.
(§10) -60°C (ANDOR, Ireland, 1024x127 pixels) used for detection.
(§11) were combined in an equimolar ratio.
(§12) The raw Raman spectra were
(§13) visualised using the graphing software OriginPro 2016G Sr2.
(§14) clipping (SNIP) algorithm, and vector normalisation.
(§15) Circular Dichroism (CD) spectroscopy with NCR247-derived peptides.
(§16) All the peptide solutions were prepared
(§17) prediction tool. […] The structure

NCR247_1-4,2-3 = molecular target: T1, NCR247_1-4,2-3; test: UV/vis difference-spectroscopic titration of peptide (10 or 20 uM) with heme (0.4-40 uM) in 100 mM HEPES pH 7.0 after 30 min incubation at room temperature, one binding site.
T1 construct: synthetic 24mer, oxidized isomer, disulfides Cys4-Cys21 and Cys10-Cys15
Description: (§18) Heme binding to the NCR247 parent peptide and its analogues was assessed using UV/vis spectroscopy (Table S2) following an earlier established experimental set‐up,[27, 30, 31, 32] with heme (0.4 to 40 μM) titrated to NCR247 peptide (20 μM) in 100 mM HEPES buffer (pH 7.0). […] The KD value for this peptide was first determined by adjusting the established protocol[30] to 1 min incubation time, while at an incubation time of 30 min concomitant oxidation of the cysteine residues has taken place as indicated by the fact that a stable complex was formed only in the first minutes and then a change in the spectrum occurred which is due to disulfide bond formation changing the heme‐binding behaviour of the peptide.
(§19) Figure 4 Heme‐binding analysis of NCR247 peptides. UV/vis spectroscopic analysis upon addition of increasing concentrations of heme (0.4–40 μM) to NCR247 oxidized isomers (on the left), in silico docking analysis (in the middle) showing residues involved in heme binding and rRaman spectra of heme‐peptide (1 : 1) complex (on the right). a, NCR247_1–3,2–4. b, NCR247_1–2,3–4. c, NCR247_reduced form, with free Cys residues. The complex formation was analysed after incubating it for 30 min at room temperature. The change in the spectral behaviour when measured after 1 min and 30 min of complex incubation is noteworthy. The intensity of the bands at λ =364 nm, indicate a change in the peptide and can be attributed to concomitant oxidation of free Cys residues in aqueous buffer systems, making the Soret band at λ =428 nm more prominent, similar to the one observed in case of the oxidized isomers. d, Peroxidase‐like activity assay of heme‐NCR247 complex measured using an oxidative conversion of TMB substrate at 652 nm. […]
(§20) Under oxidative reaction conditions, the cysteines were deprotected and folded by formation of the disulfide bridges between the cysteines according to protocols reported earlier.[4,5] […]

NCR247_1-3,2-4 = molecular target: T2, NCR247_1-3,2-4; test: as above
T2 construct: synthetic 24mer, oxidized isomer, disulfides Cys4-Cys15 and Cys10-Cys21
Description: as §18, §19, §20

NCR247_1-2,3-4 = molecular target: T3, NCR247_1-2,3-4; test: as above
T3 construct: synthetic 24mer, oxidized isomer, disulfides Cys4-Cys10 and Cys15-Cys21
Description: as §18, §19, §20

MBP-NCR247_1-4,2-3 [5] = test: UV/vis spectroscopic titration of preformed MBP (10 uM) plus NCR247_1-4,2-3 (10 uM) with heme (4-45 uM), 30 min incubation, evaluated with a model of two heme molecules per complex.; conditions: read-out: KD value, two heme molecules binding to the MBP-NCR247_1-4,2-3 complex
Description: as §3, §4, §5, §6, §7, §8, §9, §10, §11, §12, §13, §14, §15, §16, §17

NCR247_reduced [6] = test: UV/vis difference-spectroscopic titration of peptide (10 or 20 uM) with heme (0.4-40 uM) in 100 mM HEPES pH 7.0 after 30 min incubation at room temperature, one binding site.
Description: Heme binding to the NCR247 parent peptide and its analogues was assessed using UV/vis spectroscopy (Table S2) following an earlier established experimental set‐up,[27, 30, 31, 32] with heme (0.4 to 40 μM) titrated to NCR247 peptide (20 μM) in 100 mM HEPES buffer (pH 7.0). […] time, while at an incubation time of 30 min concomitant oxidation of the cysteine residues has taken place as indicated by the fact that a stable complex was formed only in the first minutes and then a change in the spectrum occurred which is due to disulfide bond formation changing the heme‐binding behaviour of the peptide.
Figure 4 Heme‐binding analysis of NCR247 peptides. […] The complex formation was analysed after incubating it for 30 min at room temperature. The change in the spectral behaviour when measured after 1 min and 30 min of complex incubation is noteworthy. The intensity of the bands at λ =364 nm, indicate a change in the peptide and can be attributed to concomitant oxidation of free Cys residues in aqueous buffer systems, making the Soret band at λ =428 nm more prominent, similar to the one observed in case of the oxidized isomers. d, Peroxidase‐like activity assay of heme‐NCR247 complex measured using an oxidative conversion of TMB substrate at 652 nm. […]

MBP = molecular target: T4, MBP (Escherichia coli, UniProt P0AEX9); test: UV/vis spectroscopic titration of MBP (10 uM) with heme (4-40 uM) in HEPES pH 7.0 after 30 min incubation, 1:1 model, Soret band near 400 nm.; assay type: binding; conditions: read-out: KD value, stoichiometry 1:1 (MBP:heme)
T4 construct: gene malE; commercial (Rockland Inc.)
Description: We thus conducted UV/vis measurements[36, 41] by titrating increasing concentrations of heme (4–40 μM) to the protein (10 μM).
as §21, §22, §23
and analysed analogously to the heme-binding studies with the peptides described above.[2]

NCR247_reduced [7] = test: UV/vis difference-spectroscopic titration of peptide (10 or 20 uM) with heme (0.4-40 uM) in 100 mM HEPES pH 7.0 after 1 min incubation, evaluated near 428 nm for one binding site.
Description: as §1, §2

Compound: NSR247: RNGSIVDPRSPYQQSRRPLYSRRR, mutant with all cysteine residues replaced with serine, negative control
- heme-binding affinity [1]: μM range
- KD heme binding [2]: n.b. and completely lost and absence of heme binding

Compound: NCR247_1–4,2–3: RNGCIVDPRCPYQQCRRPLYCRRR, isomer with bridges Cys4‐Cys21 and Cys10‐Cys15 (disulfide 10-15, 4-21)
- binding affinity of the peptide compared to the protein (MBP) [3]: two‐fold higher

Compound: C=CC1=C(C)c2cc3[nH]c(cc4nc(cc5[nH]c(cc1n2)c(C)c5CCC(=O)O)C(CCC(=O)O)=C4C)c(C)c3C=C.[Fe+3] [heme, Fe(III) protoporphyrin IX (Fe(III)PPIX, hemin)]
- Kd (MBP-NCR247_1-4,2-3 [4]): 14900 nM
- Kd (NCR247_1-4,2-3): 2800 nM
- Kd (NCR247_1-3,2-4): 2090 nM
- Kd (NCR247_1-2,3-4): 2980 nM
- Kd (MBP-NCR247_1-4,2-3 [5]): 7600 nM
- Kd (NCR247_reduced [6]): 2270 nM
- Kd (MBP): 7200 nM
- Kd (NCR247_reduced [7]): 1.44 µM

Source: publication PMC11875561, “Molecular Insights into the Heme‐Binding Potential of Plant NCR247‐Derived Peptides” (Chembiochem, 2025)
